Results on 53 compounds are retold here after patent publication US12304897B2, “15-PGDH inhibitors” (KYORIN PHARMACEUTICAL CO., LTD., priority 2019, dated 2025).

pIC50: −log10 of the molar value.

Chain of recombinant human 15-PGDH (P15428 whole entry): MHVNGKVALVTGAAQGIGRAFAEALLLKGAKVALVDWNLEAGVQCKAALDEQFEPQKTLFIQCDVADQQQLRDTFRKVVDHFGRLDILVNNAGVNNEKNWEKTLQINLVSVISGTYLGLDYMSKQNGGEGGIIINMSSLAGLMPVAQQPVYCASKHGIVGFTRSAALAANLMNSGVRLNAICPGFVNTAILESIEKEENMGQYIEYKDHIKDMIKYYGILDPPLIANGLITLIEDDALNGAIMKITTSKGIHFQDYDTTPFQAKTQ

This assay concerns the target recombinant human 15-PGDH (Homo sapiens (Human), UniProt P15428). The assay can be described thus: 15-PGDH enzyme inhibition test. It is filed as biochemical. As to conditions: 4 nM recombinant human 15-PGDH, 30 μM PGE2, 1 mM NAD+, fluorescence 340/440 nm after 60 min. As for the experimental part: 15-PGDH Enzyme Inhibition Test
Test compounds and 4 nM recombinant human 15-PGDH (R&D systems) in 50 mM Tris-HCl (pH 8.0) containing 0.01% TWEEN 20 (Sigma) and 0.01% bovine gamma globulin (Sigma) were put into 384 Flat Bottom Black plates (Corning, 3820) and allowed to stand for 12 minutes at room temperature. Then, 30 μM PGE2 (Cayman chemical) and 1 mM NAD^+ (Sigma) were added to start reaction. Sixty minutes after the start of reaction, signals were measured at an excitation wavelength of 340 nm and a fluorescence emission wavelength of 440 nm using Synergy 2 (BioTeck). The intensity of the fluorescent signal obtained when an assay buffer was added in place of the test compounds and NAD^+ was defined as 100% and that obtained with the addition of NAD^+ was defined as 0%.
As for `CN1Cc2cc(-c3cccc4cc(C(=O)N5CCC(F)(F)CC5)ccc34)ccc2C1=O` [compound 1], the negative logarithm of the IC50 (pIC50) – broadly, the negative decadic logarithm of the IC50, by convention in mol/L – was > 8.52.
As for `C[C@H]1CCCN(C(=O)c2ccc3c(N4CCc5ncccc5C4)cccc3c2)C1` [compound 2], the pIC50 was > 8.52.
`Cn1nc2n(c1=O)CCN(c1cccc3cc(C(=O)N4CCC[C@H](C(F)(F)F)C4)ccc13)C2` [compound 3]: the pIC50 was > 8.52.
Regarding `O=C(c1ccc2c(N3CCc4ncccc4C3)cccc2c1)N1CCC[C@H](C(F)(F)F)C1` [compound 4], the pIC50 was > 8.52.
As for `O=C(c1ccc2c(N3CCc4c(cc[nH]c4=O)C3)cccc2c1)N1CCC(F)(F)CC1` [compound 5], the pIC50 is > 8.52.
Consider `O=C(c1ccc2c(N3CCn4c(nn(CC(F)F)c4=O)C3)cccc2c1)N1CCCC2CC21` (centres unmarked) [compound 6], for which the pIC50 is > 8.52.
For `O=C1NC(=O)N2CCN(c3cccc4cc(C(=O)N5CCCCC5)ccc34)CC12` (centres unmarked) [compound 7], the pIC50 is ≤ 8.00.
For `CN1Cc2cc(-c3cccc4cc(C(=O)N5CCCC(C)(C)C5)ccc34)ccc2C1=O` [compound 8], the pIC50 is > 8.52.
Regarding `CN1Cc2cc(-c3coc4cc(C(=O)N5CCCCC5)ccc34)ccc2C1=O` [compound 9], the pIC50 was > 8.52.
For `CC1c2cc(-c3cccc4cc(C(=O)N5CCC(F)(F)CC5)ccc34)ccc2C(=O)N1C` (centres unmarked) [compound 10] the value was > 8.52; for `O=C(c1ccc2c(N3CCN4C(=O)CCC4C3)cccc2c1)N1CCCCC1` (centres unmarked) [compound 12], 8.00 to 8.52.
For the compound `Cc1c(-c2cccc3cc(C(=O)N4CCC(F)(F)CC4)ccc23)ccc2ncccc12` [compound 13], the pIC50 is 8.00 to 8.52.
Regarding `CN1Cc2cc(-c3cccc4cc(C(=O)N5CCCC5)ccc34)cnc2C1=O` [compound 14], the pIC50 was > 8.52.
On to `Cn1ccc2cc(-c3cccc4cc(C(=O)N5CCC(F)(F)CC5)ccc34)cnc2c1=O` [compound 15], for which the negative-log IC50 (pIC50) is > 8.52.
For `Cc1ccc2cc(C(=O)N3CCC(F)(F)CC3)ccc2c1-c1cnc2c(c1)CN(C)C2=O` [compound 16], the pIC50 is 8.00 to 8.52.
The value for `Cn1ncc2cc(-c3cccc4cc(C(=O)N5CCC(F)(F)CC5)ccc34)cnc2c1=O` [compound 17] was > 8.52.
As for `O=C(c1ccc2c(-c3ccn4c(=O)ccnc4c3)cccc2c1)N1CCC(F)(F)CC1` [compound 18], the pIC50 was > 8.52.
For the compound `O=C(c1ccc2c(N3CCn4c(nn(CC(F)F)c4=O)C3)cccc2c1)N1CCCCC1` [compound 19], the pIC50 was > 8.52.
On to `Cn1nc2n(c1=O)CCN(c1ncc(F)c3cc(C(=O)N4CCC(F)(F)CC4)ccc13)C2` [compound 20], for which the pIC50 was 8.00 to 8.52.
For `Cc1nc2n(n1)CCN(c1cccc3cc(C(=O)N4CCCCC4)ccc13)C2` [compound 21] the value was > 8.52; for `COc1nccc2c1CCN(c1cccc3cc(C(=O)N4CCCCC4)ccc13)C2` [compound 22], 8.00 to 8.52; for `O=C(c1ccc2c(N3CCc4c(cc[nH]c4=O)C3)cccc2c1)N1CCC[C@@H](F)C1` [compound 23], > 8.52.
In the case of `O=C1NCc2cc(-c3cccc4cc(C(=O)N5CCC(F)(F)CC5)ccc34)ccc21` [compound 24], the pIC50 was > 8.52.
Take `CN1Cc2cc(-c3cccc4cc(C(=O)N5CCC[C@H](C(F)(F)F)C5)ccc34)ccc2C1=O` [compound 25]: the pIC50 was > 8.52.
As for `O=C(c1ccc2c(-c3ccn4c(=O)[nH]nc4c3)cccc2c1)N1CCC(F)(F)CC1` [compound 26], the negative logarithm of the IC50 (pIC50) was > 8.52.
Take `CN1C(=O)c2ccc(-c3cccc4cc(C(=O)N5CCC(F)(F)CC5)ccc34)cc2C1(C)C` [compound 27]: the pIC50 is > 8.52.
Turning to `CC1CC2CN(c3cccc4cc(C(=O)N5CCCCC5)ccc34)CCN2C1=O` (centres unmarked) [compound 28], the pIC50 was 8.00 to 8.52.
For `CN1Cc2cc(-c3cccc4cc(C(=O)N5CCCCC5)cnc34)ccc2C1=O` [compound 29] the value was > 8.52; for `O=C(c1ccc2c(-c3ccc4c(c3)CN(CCO)C4=O)cccc2c1)N1CCC(F)(F)CC1` [compound 30], > 8.52.
In the case of `C[C@H]1CCCN(C(=O)c2ccc3c(-c4ccc5c(=O)[nH]ccc5c4)cccc3c2)C1` [compound 31], the pIC50 is > 8.52.
For `CN1Cc2nc(-c3cccc4cc(C(=O)N5CCC(F)(F)CC5)ccc34)ccc2C1=O` [compound 32], the pIC50 was > 8.52.
For `Cn1c(=O)[nH]c(=O)c2ccc(-c3cccc4cc(C(=O)N5CCC(F)(F)CC5)ccc34)cc21` [compound 33] the value was > 8.52; for `C[C@@H]1CCCN(C(=O)c2ccc3c(N4CCn5c(nn(C)c5=O)C4)cccc3c2)C1` [compound 34], > 8.52; for `C[C@@H]1CCCN(C(=O)c2ccc3c(N4CCc5c(cc[nH]c5=O)C4)cccc3c2)C1` [compound 35], > 8.52.
Take `Cc1cc2ncccc2cc1-c1cccc2cc(C(=O)N3CCC(F)(F)CC3)ccc12` [compound 36]: the pIC50 was ≤ 8.00.
For the compound `CN1Cc2cc(-c3cccc4cc(C(=O)N5CCCCC5)ccc34)ccc2C1=O` [compound 37], the pIC50 was > 8.52.
For `Cn1cnc2cc(-c3cccc4cc(C(=O)N5CCC(F)(F)CC5)ccc34)ccc2c1=O` [compound 38] the value was > 8.52; for `O=C1NCc2cc(-c3cccc4cc(C(=O)N5CCC(F)(F)CC5)ccc34)ncc21` [compound 39], > 8.52; for `O=C(c1ccc2c(-c3ccc4c(c3)CN(CC3CC(F)(F)C3)C4=O)cccc2c1)N1CCC(F)(F)CC1` [compound 40], 8.00 to 8.52.
On to `NC(=O)c1ccc(-c2cccc3cc(C(=O)N4CCC(F)(F)CC4)ccc23)cc1F` [compound 41], for which the pIC50 is > 8.52.
For `CN1Cc2cc(-c3ccnc4cc(C(=O)N5CCC(F)(F)CC5)ccc34)ccc2C1=O` [compound 42] the value was > 8.52; for `CN1Cc2cc(-c3cccc4cc(C(=O)N5CCCC5)ccc34)ccc2C1=O` [compound 43], > 8.52; for `COC(=O)CN1Cc2cc(-c3cccc4cc(C(=O)N5CCC(F)(F)CC5)ccc34)ccc2C1=O` [compound 44], > 8.52.
Turning to `COCn1ncc2cc(-c3cccc4cc(C(=O)N5CCC(F)(F)CC5)ccc34)ccc2c1=O` [compound 45], the pIC50 is > 8.52.
For `C[C@H]1CCCN(C(=O)c2ccc3c(-c4cnc5c(=O)[nH]ccc5c4)cccc3c2)C1` [compound 46] the value was > 8.52.
`C[C@H]1CCCN(C(=O)c2ccc3c(-c4cc5cc[nH]c(=O)c5cn4)cccc3c2)C1` [compound 47]: the pIC50 is > 8.52.
Turning to `CN1Cc2cc(-c3cccc4cc(C(=O)N5CCC(C(F)(F)F)CC5)ccc34)ccc2C1=O` [compound 48], the pIC50 was > 8.52.
Turning to `O=C(c1ccc2c(-c3ccc4c(=O)[nH]ccc4c3)c(F)ccc2c1)N1CCC(F)(F)CC1` [compound 49], the pIC50 is > 8.52.
The value for `O=C(c1ccc2c(N3CCc4ncccc4C3)cccc2c1)N1CCCCC1` [compound 50] was > 8.52; that for `Cc1nc2c(o1)CCN(c1cccc3cc(C(=O)N4CCCCC4)ccc13)C2` [compound 51] was 8.00 to 8.52; that for `Cn1cc2c(n1)CCN(c1cccc3cc(C(=O)N4CCCCC4)ccc13)C2` [compound 52] was 8.00 to 8.52.
The value for `Cc1cc(C(N)=O)ccc1-c1cccc2cc(C(=O)N3CCC(F)(F)CC3)ccc12` [compound 53] was 8.00 to 8.52.
In the case of `CN1Cc2cc(-c3cccc4cc(C(=O)N5CCCC(F)(F)C5)ccc34)ccc2C1=O` [compound 54], the pIC50 was > 8.52.
